Data taken from patent US20250332159A1, “REACTIVE OXYGEN SPECIES MODULATION THROUGH BINDING OF LIGANDS AT THE NQ-BINDING SITE OF THE RESPIRATORY COMPLEX III” (University of Health Sciences & Pharmacy in St. Louis, priority 2024, published 2025).

Tests used:
Assay type in all cases: cell-based, human
[1] = system: MCF7 cells; test: Qo and Qi inhibition experiments: mitochondrial superoxide anion with myxothiazol or antimycin A; settings: for mitochondrial superoxide anion level, ligand with myxothiazol (MYX): 25 μM ligand + 25 μM MYX (Qo site inhibitor); for mitochondrial superoxide anion level, ligand with antimycin (ANT): 25 μM ligand + 25 μM ANT (Qi site inhibitor)
Procedure: (§1) The MCF7 breast cancer cell line (ATCC, HTB-22) was purchased from American Type Culture Collection (ATCC, Manassas, VA) and propagated in Eagle's minimum essential medium (EMEM, ATCC) supplemented with 10% FBS (Thermo Scientific), 1% L-glutamine and 1% penicillin/streptomycin (ATCC) in a humidified incubator at 37° C. and 5% CO2. Cells were harvested and seeded into a 96-well black plate at a cell density of 25,000 cells/well and left overnight to adhere. Afterward, cells were treated with 25 μM of the 14 purchased ligands from MolPort (Riga, Latvia), positive control (i.e., doxorubicin), and negative control (i.e., DMSO) and left in the incubator for 6-8 hours. For the Qo and Qi inhibition experiments, 25 μM of myxothiazol or antimycin A (Sigma-Aldrich), respectively were also incubated. Negative controls for the inhibition experiments were composed of DMSO and either 25 μM of myxothiazol or antimycin A. Afterward, cells were washed and stained for 30 minutes at 37° C. and 5% CO2 in the dark using the CellRox Green (Invitrogen, USA) or the MitoSOX Red Assay Kit (Invitrogen, USA). Afterward, cells were washed, and total cellular ROS or mitochondrial superoxide anion levels were measured using the Synergy Biotek UV/Vis/fluorescence microplate reader with excitation/emission wavelengths of 490/525 nm or 396/610 nm, respectively. Nuclei were labeled using NucBlue Live ReadyProbes Reagent (Hoechst 33342). All experiments were performed in at least triplicate and repeated for at least three independent trials.

[2] = system: MCF7 cells; test: Total cellular ROS measurement (CellRox Green); settings: 25 μM, 6-8 hours
Procedure: as §1

[3] = system: MCF7 cells; test: MTS cytotoxicity assay; settings: MCF7 cell line, 48 hours
Source text: MCF7 cells were harvested and seeded at a cell density of 5,000 cells/well into a 96-well white plate and left overnight to adhere. […] Then, cells were washed and assayed for cytotoxicity using CellTiter 96® AQueous One Solution Cell Proliferation Assay kit (MTS) (Promega, USA), which is a colorimetric assay containing colorless tetrazolium compound that is bio-reduced by NADPH or NADH produced by dehydrogenase enzymes in metabolically active cells into a colored formazan product that can be measured at wavelength 490 nm using the Synergy Biotek plate reader. Sequential treatment was performed by incubating the overnight attached MCF7 cells with 25 μM of MH-200102 for 24 hours. Then, the cells were washed once and incubated with different concentrations of MH-101015 for another 24 hours. Then, the cells were assayed for cytotoxicity, as mentioned above.

Row | Compound | mitochondrial superoxide anion level, ligand with myxothiazol (MYX) [1] | total ROS level compared to negative control (DMSO) [2] | IC50 ([3]; Homo sapiens, single treatment, read-out: cytotoxic activity IC50) [µM] | cytotoxic activity ([3]; 0-100 μM) | mitochondrial superoxide anion level, ligand with antimycin (ANT) [1]
1 | O=C(CSc1ccccc1)NCCCn1ccnc1 [MH-200102] | MYX blocks the ROS up-modulating activity | twofold | 14.6 |  | 
2 | Cc1cc(I)ccc1NC(=O)c1ccc(Br)c(N)c1 [MH-04504] | MYX blocks the ROS up-modulating activity | modest total ROS upregulating activity |  | modest cytotoxic activity | 
3 | O=C(O)c1cccc2ncccc12 [MH-01015] | MYX blocks any ROS down-modulating activity | total ROS down-regulating activity |  |  | ANT blocks any ROS down-regulating activity
4 | COCc1cnc2n1CCN(C(=O)c1cscn1)[C@H]2C [MH-131013] | MYX blocks any ROS down-modulating activity | total ROS down-regulating activity |  |  | ANT blocks any ROS down-regulating activity
